Measured values taken from US7528274B2, “Acylthiols and component thiol compositions as anti-HIV and anti-retroviral agents” (The United States of America as represented by the …, priority 2001, dated 2009).
Read-outs that look alike come from different tables or passages of the source.

Assays:
[1] = test system: HIV-1 virus; assay: Infectivity of treated virions, PCR assay for intracellularly-synthesized viral RNA; type: cell-based
Text: The treated virions can also be tested for infectivity. The virions are suspended in media (rather than solubilized) and added to target cells. The cultures are then examined to determine whether the virions are still active. To determine whether the treated virus particles are active, the cells are monitored for the presence of intracellularly-synthesized viral RNA using, for example, the polymerase chain reaction (PCR) (Rice (1993) Proc. Natl. Acad. Sci. USA 90:9721; Turpin (1996) J. Virol. 70:6180). Alternatively, cytoprotection assays can be used (Weislow (1993) J. Natl. Cancer Inst. 81:577). An example of a compound which can be used as a control in the gel mobility shift assay is azodicarbonamide (ADA), a compound which is commercially available from the Aldrich Chemical Company (Milwaukee, Wis.).

[2] = test system: PBMCs; assay: XTT assay, cytotoxicity, HIV-1 144-44/PBMCs section; type: cell-based
Text: (§1) One exemplary means to determine antiviral activity is with CEM-SS cells and virus (e.g., HIV-1RF) (MOI=0.01) using the XTT {2,3-bis[2-methoxy-4-nitro-5-sulfophenyl]-5- -[(phenylamino)carbonyl]-2H-tetrazolium hydroxide} cytoprotection assay, as described by Rice (1993) Proc. Natl. Acad. Sci. USA 90: 9721-9724, and Rice (1997) Antimicrob. Agents & Chemother. […] Briefly, cells are infected with HIV-1RF (or other virus to be tested) in the presence of various dilutions of test compounds and controls. The cultures are incubated for seven days. […] The cell death is measured by XTT dye reduction. XTT is a soluble tetrazolium dye that measures mitochondrial energy output, similar to MTT. […] Individual assays are done in duplicate using a sister plate method. […] Compound numbers therein refer to the numbers used in FIG. 1.

[3] = test system: HIV-1 1026040 (mutation V32I/M46I/L63P/L90M); assay: XTT assay against drug resistant mutant HIV-1 1026040; type: cell-based
Text: as §1

[4] = test system: HIV-1 144-44 (mutation L10I/M46I/I54V/L63P/A71V/V82A/L90M); assay: XTT assay against drug resistant mutant HIV-1 144-44 in PBMCs; type: cell-based; conditions: HIV-1 144-44/PBMCs
Text: as §1

[5] = test system: cells; assay: XTT assay, cytotoxicity, HIV-1 1026040 section; type: cell-based
Text: as §1

[6] = test system: CEM-SS; assay: XTT assay, cytotoxicity, HIV-2 (Rod/CEM-SS) section; type: cell-based
Text: as §1

[7] = test system: HIV-2 (Rod); assay: XTT cytoprotection assay, HIV-2 (Rod/CEM-SS); type: cell-based
Text: as §1

[8] = test system: PBMCs; assay: XTT assay, cytotoxicity, HIV-1 (RoJo/PBMCs) section; type: cell-based
Text: as §1

[9] = test system: HIV-1 (RoJo); type: cell-based; conditions: HIV-1 (RoJo/PBMCs)
Text: as §1

[10] = test system: cells; assay: XTT assay, cytotoxicity, SIV (Mac 251) section; type: cell-based
Text: as §1

[11] = test system: SIV (Mac 251); assay: XTT cytoprotection assay, SIV (Mac 251); type: cell-based
Text: as §1

[12] = test system: HIV p24; assay: p24 inhibition ELISA assay, HIV transgenic mouse model spleen cells; type: cell-based; conditions: for EC50: Human immunodeficiency virus 1; for Therapeutic Index: p24 inhibition ELISA, HIV transgenic mouse model spleen cells
Text: (§2) One of the advantages of the compounds of the present invention over previously identified antiretroviral agents is their increased hydrolytic stability, which improves their biological activity and reduces the amount of compound that must be delivered to a treated subject to produce the desired effect. […] A PATE compound having the following structure is included: […]

[13] = XTT assay, cytotoxicity (cellular growth inhibition) in CEM-SS cells; type: cell-based; conditions: human
Text: (§3) One exemplary means to determine antiviral activity is with CEM-SS cells and virus (e.g., HIV-1RF) (MOI=0.01) using the XTT (2,3-bis[2-methoxy-4-nitro-5-sulfophenyl]-5-[(phenylamino)carbonyl]-2H-tetrazolium hydroxide) cytoprotection assay, as described by Rice (1993) PNAS 90:9721-9724, and Rice (1997) Antimicrob. Agents Chemother. […] Briefly, cells are infected with HIV-1RF (or other virus to be tested) in the presence of various dilutions of test compounds or control compounds. The cultures are incubated for seven days. […] The cell death is measured by XTT dye reduction. XTT is a soluble tetrazolium dye that measures mitochondrial energy output, similar to MTT. […] Individual assays are done in duplicate using a sister plate method.
as §1

[14] = test system: HIV-1RF; assay: XTT cytoprotection assay, CEM-SS cells infected with HIV-1RF; type: cell-based; conditions: HIV-1RF, CEM-SS cells; for EC50: read-out: EC50 (50% cytoprotection), seven days, XTT
Text: as §3, §1

[15] = test system: HIV transgenic mouse model spleen cells; assay: Cytotoxicity, HIV transgenic mouse model spleen cells; type: cell-based
Text: as §2

[16] = Hydrolysis assay (relative rates of hydrolysis); type: in vitro ADME
Text: as §2

[17] = test system: CEM-SS cells; assay: XTT assay, cytotoxicity (cellular growth inhibition) in CEM-SS cells; type: cell-based; conditions: read-out: IC50 (50% cytotoxicity)
Text: as §3, §1

[18] = Human immunodeficiency virus 1, 168 h

Row | Compound | EC50 [12] [µM] | Therapeutic Index [12] | IC50 at 7 days [13] [µM] | Therapeutic Index [14] | EC50 [14, 18] [µM] | IC50 [15] [µM] | half-life [16] [min] | further results
1 | NC(=O)N=NC(N)=O [ADA, azodicarbonamide] |  |  |  |  |  |  |  | Inactivation of HIV-1 virus [1]: inactivates HIV-1 virus
2 | Cc1cn([C@H]2C[C@H](N=[N+]=[N-])[C@@H](CO)O2)c(=O)[nH]c1=O [AZT, 3′-azido-2′, 3′-dideoxythymidine, reference compound] |  |  |  |  |  |  |  | IC50 [2]: > 200 µM; EC50 [3]: 6 nM; TI [3]: >167; EC50 [4]: 1300 nM; TI [4]: >153; IC50 [5]: > 1 µM; IC50 [6]: > 1 µM; EC50 [7]: 17 nM; IC50 [8]: > 4 µM; EC50 [9]: 10 nM; IC50 [10]: > 1 µM; EC50 [11]: 20 nM
3 | COc1ccc(C(=O)Sc2ccccc2C(=O)NCCC(N)=O)cc1OC [Compound 11] | 3.6 | >69 | 165 | 24 | 6.9 | > 250 | 244 | 
4 | COc1cc(OC)cc(C(=O)Sc2ccccc2C(=O)NCCC(N)=O)c1 [Compound 12] | 3.5 | 39 | 102 | 13 | 8.1 | 136 | 465 | 
5 | Cc1ccccc1C(=O)Sc1ccccc1C(=O)NCCC(N)=O [Compound 22] | 2.6 | 23 | 22 | 2.3 | 9.7 | 59 | 408 | 
6 | CC(C)(C)c1ccc(C(=O)Sc2ccccc2C(=O)NCCC(N)=O)cc1 [Compound 23] | 2.2 | 56 | 107 | 24 | 4.5 | 123 | > 500 | 
7 | Cc1cccc(C(=O)NCCC(N)=O)c1SC(=O)c1ccccc1 [Compound 61] | 15.7 |  |  |  |  |  | 421 | 
8 | NC(=O)C1CN1C(=O)c1ccccc1SC(=O)NC1CCCCC1 (centres unmarked) [Compound 129] |  |  |  |  |  |  |  | IC50 [2]: > 200 µM; EC50 [3]: 4000 nM; TI [3]: >51; EC50 [4]: 170 nM; TI [4]: >1168; IC50 [5]: > 200 µM; IC50 [6]: 6.54 µM; EC50 [7]: 104 nM; EC50 [14]: 0.55 µM; IC50 [8]: 184 µM; EC50 [9]: 3800 nM; IC50 [10]: 21.8 µM; EC50 [11]: 290 nM
9 | CC(C)(C)CC(C)(C)NC(=O)Sc1ccccc1C(=O)N1CC1C(N)=O (centres unmarked) [Compound 131] |  |  |  | 80 |  |  |  | IC50 [17]: 35.8 µM; EC50 [14]: 0.45 µM
